Publication PMC9823097, “Dysregulation of PRMT5 in chronic lymphocytic leukemia promotes progression with high risk of Richter’s transformation” (Nature Communications, 2023)

System: HG3 cells
Assay: Cell growth curves over 12 days, HG3
Assay type: cell-based
Procedure: Live cells/mL were counted on days 3, 6, 10, and 12. […] The split factor was calculated at indicated time points by dividing the counted cells/mL by 3E5. Cell growth was extrapolated over time by multiplying the subsequent cell count by the previous split factor. Cell growth is plotted as fold change relative to DMSO-treated cells.

O=C(NC[C@H](O)CN1CCc2ccccc2C1)c1cc(NC2COC2)ncn1 [EPZ015666]
Rep 1 Live Cells [Fold Change] (HG3, 1 nM, day 0): 1 Fold Change
Rep 2 Live Cells [Fold Change] (HG3, 1 nM, day 0): 1 Fold Change
Rep 1 Live Cells [Fold Change] (HG3, 1 nM, day 3): 5.41 Fold Change
Rep 2 Live Cells [Fold Change] (HG3, 1 nM, day 3): 6.183 Fold Change
Rep 1 Live Cells [Fold Change] (HG3, 1 nM, day 6): 37.87 Fold Change
Rep 2 Live Cells [Fold Change] (HG3, 1 nM, day 6): 41.0161 Fold Change
Rep 1 Live Cells [Fold Change] (HG3, 1 nM, day 10): 230.663 Fold Change
Rep 2 Live Cells [Fold Change] (HG3, 1 nM, day 10): 364.018 Fold Change
Rep 1 Live Cells [Fold Change] (HG3, 1 nM, day 12): 1359.37 Fold Change
Rep 2 Live Cells [Fold Change] (HG3, 1 nM, day 12): 2238.71 Fold Change
Rep 1 Live Cells [Fold Change] (HG3, 10 nM, day 0): 1 Fold Change
Rep 2 Live Cells [Fold Change] (HG3, 10 nM, day 0): 1 Fold Change
Rep 1 Live Cells [Fold Change] (HG3, 10 nM, day 3): 6.05 Fold Change
Rep 2 Live Cells [Fold Change] (HG3, 10 nM, day 3): 5.567 Fold Change
Rep 1 Live Cells [Fold Change] (HG3, 10 nM, day 6): 44.77 Fold Change
Rep 2 Live Cells [Fold Change] (HG3, 10 nM, day 6): 36.2761 Fold Change
Rep 1 Live Cells [Fold Change] (HG3, 10 nM, day 10): 317.46 Fold Change
Rep 2 Live Cells [Fold Change] (HG3, 10 nM, day 10): 308.347 Fold Change
Rep 1 Live Cells [Fold Change] (HG3, 10 nM, day 12): 1720.21 Fold Change
Rep 2 Live Cells [Fold Change] (HG3, 10 nM, day 12): 1505.76 Fold Change
Rep 1 Live Cells [Fold Change] (HG3, 100 nM, day 0): 1 Fold Change
Rep 2 Live Cells [Fold Change] (HG3, 100 nM, day 0): 1 Fold Change
Rep 3 Live Cells [Fold Change] (HG3, 100 nM, day 0): 1 Fold Change
Rep 4 Live Cells [Fold Change] (HG3, 100 nM, day 0): 1 Fold Change
Rep 1 Live Cells [Fold Change] (HG3, 100 nM, day 3): 5.29 Fold Change
Rep 2 Live Cells [Fold Change] (HG3, 100 nM, day 3): 5.42 Fold Change
Rep 3 Live Cells [Fold Change] (HG3, 100 nM, day 3): 7.7 Fold Change
Rep 4 Live Cells [Fold Change] (HG3, 100 nM, day 3): 8.317 Fold Change
Rep 1 Live Cells [Fold Change] (HG3, 100 nM, day 6): 34.2087 Fold Change
Rep 2 Live Cells [Fold Change] (HG3, 100 nM, day 6): 34.688 Fold Change
Rep 3 Live Cells [Fold Change] (HG3, 100 nM, day 6): 44.4033 Fold Change
Rep 4 Live Cells [Fold Change] (HG3, 100 nM, day 6): 58.2167 Fold Change
Rep 1 Live Cells [Fold Change] (HG3, 100 nM, day 10): 327.781 Fold Change
Rep 2 Live Cells [Fold Change] (HG3, 100 nM, day 10): 304.216 Fold Change
Rep 3 Live Cells [Fold Change] (HG3, 100 nM, day 10): 521.739 Fold Change
Rep 4 Live Cells [Fold Change] (HG3, 100 nM, day 10): 589.444 Fold Change
Rep 1 Live Cells [Fold Change] (HG3, 100 nM, day 12): 1552.37 Fold Change
Rep 2 Live Cells [Fold Change] (HG3, 100 nM, day 12): 1763.75 Fold Change
Rep 3 Live Cells [Fold Change] (HG3, 100 nM, day 12): 1182.61 Fold Change
Rep 4 Live Cells [Fold Change] (HG3, 100 nM, day 12): 2564.08 Fold Change
Rep 1 Live Cells [Fold Change] (HG3, 1 µM, day 0): 1 Fold Change
Rep 2 Live Cells [Fold Change] (HG3, 1 µM, day 0): 1 Fold Change
Rep 3 Live Cells [Fold Change] (HG3, 1 µM, day 0): 1 Fold Change
Rep 4 Live Cells [Fold Change] (HG3, 1 µM, day 0): 1 Fold Change
Rep 1 Live Cells [Fold Change] (HG3, 1 µM, day 3): 4.22 Fold Change
Rep 2 Live Cells [Fold Change] (HG3, 1 µM, day 3): 4.83 Fold Change
Rep 3 Live Cells [Fold Change] (HG3, 1 µM, day 3): 7.35 Fold Change
Rep 4 Live Cells [Fold Change] (HG3, 1 µM, day 3): 8.167 Fold Change
Rep 1 Live Cells [Fold Change] (HG3, 1 µM, day 6): 27.219 Fold Change
Rep 2 Live Cells [Fold Change] (HG3, 1 µM, day 6): 35.0658 Fold Change
Rep 3 Live Cells [Fold Change] (HG3, 1 µM, day 6): 34.79 Fold Change
Rep 4 Live Cells [Fold Change] (HG3, 1 µM, day 6): 45.4611 Fold Change
Rep 1 Live Cells [Fold Change] (HG3, 1 µM, day 10): 173.707 Fold Change
Rep 2 Live Cells [Fold Change] (HG3, 1 µM, day 10): 145.701 Fold Change
Rep 3 Live Cells [Fold Change] (HG3, 1 µM, day 10): 233.093 Fold Change
Rep 4 Live Cells [Fold Change] (HG3, 1 µM, day 10): 381.873 Fold Change
Rep 1 Live Cells [Fold Change] (HG3, 1 µM, day 12): 608.205 Fold Change
Rep 2 Live Cells [Fold Change] (HG3, 1 µM, day 12): 463.207 Fold Change
Rep 3 Live Cells [Fold Change] (HG3, 1 µM, day 12): 924.602 Fold Change
Rep 4 Live Cells [Fold Change] (HG3, 1 µM, day 12): 1559.32 Fold Change
effect on growth potential (cell growth) (HG3, continuous exposure over 12 days): No changes in growth potential
